Assay results reported in patent US9420797B2, “Method for preparing biocidal aqueous compositions” (BROMINE COMPOUNDS LTD., priority 2012, dated 2016).

What was measured:
[1] = tested on: Pseudomonas aeruginosa (ATCC 15442) entrapped in alginate gel beads; assay: Biocidal activity against simulated biofilm (bacteria entrapped in alginate gel beads), surviving CFU; settings: contact time 24 hours, count at time 0 1.40E+07
[2] = tested on: Inoculum of bacteria (Activated sludge taken from Domestic Waste Water treatment Plant—Haifa); assay: Microbial efficacy (% kill) under different TOC loading, activated sludge bacteria, pour plate count on R2A agar; assay type: cell-based; settings: contact time 30 min, pH 7
Description: Inoculum of bacteria (Activated sludge taken from Domestic Waste Water treatment Plant-Haifa). R2A agar for general counting. Tryptone, in amounts of either 0.025, or 0.119 or 0.239 g solid tryptone, was weighed and dissolved in 1 liter of buffer. Neutralization solution (NaHSO4). Chlorourea solution, prepared from aq. urea hydrochloride (consisting of 5.8% HCl and 38.2% urea, Wt %) and a 12.9% aq NaOCl as Cl2, Wt %); Urea, HCl:NaOCl 4:1:1 molar ratio. The biocidal efficacy of the antifouling composition at different organic loads of 0, 10, 30 and 50 ppm TOC, was examined under different biocidal concentrations (2.5, 5 and 10 ppm) at pH 7. 1) 1 ml of inoculum was added to tryptone solutions (placed in 3 erlenmeyer flasks, 100 ml each, with different concentrations of TOC-0, 10, 30 and 50 ppm). 2) 1 ml of each sample was inoculated on […] agar (pour plate method). The result stands for the bacteria count at zero time. 3) For each of the tryptone concentrations (0, 10, 30, 50 ppm TOC) an inoculum of bacteria (1 ml) and the appropriate biocide concentration were added. 4) After 30 and 60 min. of shaking (100 rpm), 1 ml of each sample was transferred to a tube filled with 9 ml of the neutralization solution. An aliquot of 1 ml was taken from this solution and added to another tube containing 9 ml of buffer solution. The solution was mixed under vortex. This operation was repeated 4 more times. 5) 1 ml from the two lowest dilutions was inoculated on a […] agar (by the pour plate method). 6) After the plates were incubated at 25° C. for 5-7 days, the bacteria count was recorded.

Structure (SMILES): OCl [NaOCl, sodium hypochlorite]
- survival of bacteria (CFU) ([1]; biocide 0.5 ppm as Cl2): 3.6E+06 CFU
- survival of bacteria (CFU) ([1]; biocide 1 ppm as Cl2): 2.53E+06 CFU
- survival of bacteria (CFU) ([1]; biocide 2.5 ppm as Cl2): 1.00E+00 CFU
- survival of bacteria (CFU) ([1]; biocide 5 ppm as Cl2): 1.00E+00 CFU
- % Kill ([2]; TOC 0 ppm, biocide 2.5 ppm as Cl2): 98.8%
- % Kill ([2]; TOC 0 ppm, biocide 5 ppm as Cl2): 99.6%
- % Kill ([2]; TOC 0 ppm, biocide 10 ppm as Cl2): 99.9%
- % Kill ([2]; TOC 10 ppm, biocide 2.5 ppm as Cl2): 37.7%
- % Kill ([2]; TOC 10 ppm, biocide 5 ppm as Cl2): 97.8%
- % Kill ([2]; TOC 10 ppm, biocide 10 ppm as Cl2): 99.5%
- % Kill ([2]; TOC 30 ppm, biocide 2.5 ppm as Cl2): 11.6%
- % Kill ([2]; TOC 30 ppm, biocide 5 ppm as Cl2): 78.2%
- % Kill ([2]; TOC 30 ppm, biocide 10 ppm as Cl2): 93.6%
- % Kill ([2]; TOC 50 ppm, biocide 2.5 ppm as Cl2): 24.1%
- % Kill ([2]; TOC 50 ppm, biocide 5 ppm as Cl2): 49.2%
- % Kill ([2]; TOC 50 ppm, biocide 10 ppm as Cl2): 91.7%
